Experimental data: ChEMBL document CHEMBL1201862, “PubChem BioAssay data set” (2004)
Active and inactive are the calls of the source.

Assays:
[1] = HIV-1 AD8 envelope cell-cell fusion blockers – cherry-pick, dose response (AID 652062); assay type: functional, cell-based;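 note: luciferase signal from cell-cell fusion driven by HIV-1 clade B AD8 Env; potency is for inhibitors of fusion seen as a drop in luminescence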
[2] = blockers of HIV-1 envelope-mediated cell-cell fusion – cherry-pick, dose response (AID 652057); assay type: functional, cell-based
[3] = off-target signal loss in HeLa-CEM21 co-culture – HeLa F-luc CTL cells, cherry-picked, counter-screen for HIV-1 Env fusion inhibitor project, dose response (AID 652040); assay type: functional, cell-based;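 note: potency for signal decrease marking cytotoxic or nonspecific inhibition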
[4] = blockers of HIV-1 ZM109 envelope-driven cell-cell fusion – HeLa effector, CEM target cells, luciferase, cherry-pick, dose response (AID 652058); assay type: functional, cell-based;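 note: luciferase signal from HIV-1 Env mediated cell-cell fusion of effector and target cells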
[5] = biological target: Beta-galactosidase (Escherichia coli, UniProt Q8VNN2); experiment: PubChem AID 485352; assay type: functional
Sequence of Beta-galactosidase (Q8VNN2 whole entry): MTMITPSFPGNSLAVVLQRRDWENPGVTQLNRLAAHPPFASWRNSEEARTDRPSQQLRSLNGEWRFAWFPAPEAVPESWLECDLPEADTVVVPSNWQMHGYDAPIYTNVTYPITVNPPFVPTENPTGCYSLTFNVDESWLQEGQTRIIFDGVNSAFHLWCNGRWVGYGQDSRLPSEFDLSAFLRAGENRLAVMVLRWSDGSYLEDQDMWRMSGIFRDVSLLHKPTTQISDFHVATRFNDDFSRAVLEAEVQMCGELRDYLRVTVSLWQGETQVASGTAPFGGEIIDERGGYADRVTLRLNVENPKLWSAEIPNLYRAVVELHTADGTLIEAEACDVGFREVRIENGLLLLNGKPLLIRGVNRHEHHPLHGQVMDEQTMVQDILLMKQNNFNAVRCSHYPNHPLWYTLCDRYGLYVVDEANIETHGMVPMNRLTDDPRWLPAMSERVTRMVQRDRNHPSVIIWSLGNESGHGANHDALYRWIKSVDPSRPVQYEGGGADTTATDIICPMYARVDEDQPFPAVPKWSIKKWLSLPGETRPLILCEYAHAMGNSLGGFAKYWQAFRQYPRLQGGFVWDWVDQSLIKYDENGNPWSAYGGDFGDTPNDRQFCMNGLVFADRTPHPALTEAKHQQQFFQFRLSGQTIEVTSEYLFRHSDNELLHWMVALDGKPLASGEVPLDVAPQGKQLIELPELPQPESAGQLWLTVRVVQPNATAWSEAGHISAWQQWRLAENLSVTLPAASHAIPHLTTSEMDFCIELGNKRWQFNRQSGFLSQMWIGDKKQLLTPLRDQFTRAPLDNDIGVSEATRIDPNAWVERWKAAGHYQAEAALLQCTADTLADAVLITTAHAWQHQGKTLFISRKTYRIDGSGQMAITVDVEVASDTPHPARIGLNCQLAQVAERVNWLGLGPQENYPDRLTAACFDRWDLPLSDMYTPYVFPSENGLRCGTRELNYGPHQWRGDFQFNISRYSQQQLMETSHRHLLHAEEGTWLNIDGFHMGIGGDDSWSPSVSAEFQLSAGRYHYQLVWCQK

[6] = biological target: T1, Type-1 angiotensin II receptor (Homo sapiens, UniProt P30556); experiment: antagonism of angiotensin II type 1 receptor – cell-based, uHTS hits, selectivity assay for APJ receptor antagonist project, dose response (AID 463214); assay type: functional;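 note: antagonist potency against angiotensin II stimulated AT1 response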
T1 sequence (P30556 whole entry): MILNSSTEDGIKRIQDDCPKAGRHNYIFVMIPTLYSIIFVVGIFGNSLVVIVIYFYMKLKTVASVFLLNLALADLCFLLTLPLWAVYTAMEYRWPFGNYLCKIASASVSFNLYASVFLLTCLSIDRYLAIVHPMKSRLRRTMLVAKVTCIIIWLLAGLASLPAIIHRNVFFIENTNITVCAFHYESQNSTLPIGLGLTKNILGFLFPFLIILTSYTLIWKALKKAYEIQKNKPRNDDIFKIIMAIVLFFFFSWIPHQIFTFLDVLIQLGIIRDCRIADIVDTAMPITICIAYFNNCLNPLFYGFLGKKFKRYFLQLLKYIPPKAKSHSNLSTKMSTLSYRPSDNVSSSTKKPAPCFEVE

[7] = biological target: T2, Replicative DNA helicase DnaB (Mycobacterium tuberculosis, UniProt P9WMR3); experiment: DnaB intein splicing inhibitors, dose response, biochemical, cell-free fluorescence (AID 449749); assay type: functional
T2 sequence (P9WMR3 whole entry): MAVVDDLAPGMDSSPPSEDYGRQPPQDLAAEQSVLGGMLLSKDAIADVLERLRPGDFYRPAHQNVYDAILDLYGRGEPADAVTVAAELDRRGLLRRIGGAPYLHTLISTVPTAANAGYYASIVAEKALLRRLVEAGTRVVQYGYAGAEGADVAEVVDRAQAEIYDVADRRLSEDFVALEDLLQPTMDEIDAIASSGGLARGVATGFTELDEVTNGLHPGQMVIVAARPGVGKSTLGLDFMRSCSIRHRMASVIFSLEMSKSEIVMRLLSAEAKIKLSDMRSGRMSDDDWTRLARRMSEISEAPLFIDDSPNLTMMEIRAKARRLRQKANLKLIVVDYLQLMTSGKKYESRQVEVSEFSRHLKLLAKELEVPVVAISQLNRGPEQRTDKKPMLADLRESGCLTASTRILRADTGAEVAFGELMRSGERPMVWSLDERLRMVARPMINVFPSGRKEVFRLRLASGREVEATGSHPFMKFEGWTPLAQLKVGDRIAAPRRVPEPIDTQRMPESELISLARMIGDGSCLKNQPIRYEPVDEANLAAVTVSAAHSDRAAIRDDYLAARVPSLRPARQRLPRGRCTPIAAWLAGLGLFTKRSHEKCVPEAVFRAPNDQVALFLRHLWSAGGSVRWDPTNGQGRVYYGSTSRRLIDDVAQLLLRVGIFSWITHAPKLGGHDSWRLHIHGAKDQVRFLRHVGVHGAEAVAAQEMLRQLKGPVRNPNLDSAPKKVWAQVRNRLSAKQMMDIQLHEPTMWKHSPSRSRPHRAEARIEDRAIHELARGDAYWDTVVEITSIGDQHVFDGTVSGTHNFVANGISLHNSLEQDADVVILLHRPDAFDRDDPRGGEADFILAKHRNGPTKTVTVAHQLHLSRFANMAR

[8] = biological target: T3, Protein RecA (Mycobacterium tuberculosis, UniProt P9WHJ3); experiment: Fluorescence Cell-Free Homogeneous Dose Retest to Identify Inhibitors of RecA-Intein Splicing Activity. [Related pubchem assays (depositor defined):AID2097, AID2223, AID489010, AID492950]; assay type: functional
T3 sequence (P9WHJ3 whole entry): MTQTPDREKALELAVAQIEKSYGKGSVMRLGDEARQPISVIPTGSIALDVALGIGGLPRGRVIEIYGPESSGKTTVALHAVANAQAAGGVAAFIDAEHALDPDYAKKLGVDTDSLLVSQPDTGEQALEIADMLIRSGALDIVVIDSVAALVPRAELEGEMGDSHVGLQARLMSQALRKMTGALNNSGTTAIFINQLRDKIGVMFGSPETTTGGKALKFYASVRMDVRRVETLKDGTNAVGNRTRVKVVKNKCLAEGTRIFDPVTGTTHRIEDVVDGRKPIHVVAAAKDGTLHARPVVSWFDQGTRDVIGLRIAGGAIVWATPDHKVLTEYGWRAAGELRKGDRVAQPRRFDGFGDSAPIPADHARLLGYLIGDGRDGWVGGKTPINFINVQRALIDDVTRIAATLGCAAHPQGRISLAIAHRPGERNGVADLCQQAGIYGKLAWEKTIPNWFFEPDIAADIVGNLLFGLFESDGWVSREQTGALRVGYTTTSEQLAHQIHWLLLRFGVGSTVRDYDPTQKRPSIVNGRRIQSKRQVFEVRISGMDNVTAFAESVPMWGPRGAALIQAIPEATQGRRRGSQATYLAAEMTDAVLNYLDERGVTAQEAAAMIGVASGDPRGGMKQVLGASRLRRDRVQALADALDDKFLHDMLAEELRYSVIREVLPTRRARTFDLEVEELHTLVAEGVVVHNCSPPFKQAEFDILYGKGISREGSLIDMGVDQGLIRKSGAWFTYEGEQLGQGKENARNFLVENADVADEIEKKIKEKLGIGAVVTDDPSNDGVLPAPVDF

[9] = system: HEK293; experiment: EBV LMP1 TES2 canonical NF-kB signalling blockers – cell-based, HEK293, luciferase, cherry-pick, dose response (AID 588343); assay type: functional; conditions: Homo sapiens
[10] = biological target: Induced myeloid leukemia cell differentiation protein Mcl-1 (Homo sapiens, UniProt Q07820); assay type: functional
Sequence of Induced myeloid leukemia cell differentiation protein Mcl-1 (Q07820 whole entry): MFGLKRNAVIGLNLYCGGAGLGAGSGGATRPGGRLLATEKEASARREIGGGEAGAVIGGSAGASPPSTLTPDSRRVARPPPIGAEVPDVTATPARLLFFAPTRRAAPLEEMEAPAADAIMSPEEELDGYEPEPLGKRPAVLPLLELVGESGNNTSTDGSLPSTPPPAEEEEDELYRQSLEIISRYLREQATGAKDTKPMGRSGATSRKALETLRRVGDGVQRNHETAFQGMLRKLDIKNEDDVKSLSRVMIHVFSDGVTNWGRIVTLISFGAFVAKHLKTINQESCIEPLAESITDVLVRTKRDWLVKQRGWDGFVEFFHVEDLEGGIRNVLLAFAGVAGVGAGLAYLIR

[11] = luciferase reporter signal suppression in cells – H4 neuroglioma cells, luminescence, dose response (AID 1990); assay type: functional, cell-based
[12] = alpha-synuclein stem-loop luciferase translation blockers – H4 neuroglioma cells, luminescence, confirmation (AID 1988); assay type: functional, cell-based
[13] = Luminescence Cell-Based Dose Response HTS to Identify Inhibitors of 5'UTR Stem-Loop Driven Prion Protein mRNA Translation in H4 Neuroglioblastoma Cells. [Related pubchem assays: 1827 (Project Summary), 1813 (Primary HTS)]; assay type: functional
[14] = biological target: Paired box protein Pax-8 (Homo sapiens, UniProt Q06710); experiment: PAX8 transcriptional activity inhibition in RMG-I – RMG-I cells, luciferase, cherry-pick, dose response (AID 687027); assay type: functional, cell-based;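 note: luciferase reporter driven by Pax8 target thyroperoxidase promoter measured by SteadyGlo luminescence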
Sequence of Paired box protein Pax-8 (Q06710 whole entry): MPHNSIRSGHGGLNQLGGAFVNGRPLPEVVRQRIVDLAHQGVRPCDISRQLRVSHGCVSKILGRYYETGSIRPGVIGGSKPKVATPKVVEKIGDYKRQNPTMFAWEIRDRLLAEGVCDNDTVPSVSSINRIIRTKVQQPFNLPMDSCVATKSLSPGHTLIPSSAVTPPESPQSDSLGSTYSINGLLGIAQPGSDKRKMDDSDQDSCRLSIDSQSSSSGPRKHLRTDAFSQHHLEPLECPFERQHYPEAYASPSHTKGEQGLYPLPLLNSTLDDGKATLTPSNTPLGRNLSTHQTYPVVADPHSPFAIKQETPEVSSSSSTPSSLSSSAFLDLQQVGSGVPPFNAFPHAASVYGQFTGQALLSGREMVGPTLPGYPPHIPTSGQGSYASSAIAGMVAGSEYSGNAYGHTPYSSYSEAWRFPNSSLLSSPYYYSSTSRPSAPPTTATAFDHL

[15] = system: Vero; experiment: cells; assay type: functional; conditions: Chlorocebus sabaeus
[16] = biological target: T4, Polyadenylate-binding protein 1 (Homo sapiens, UniProt P11940); experiment: MLLE binding blockers, Cy5 peptide tracer – biochemical, fluorescence polarization, Cy5-PAM2 peptide, secondary, miRNA deadenylation inhibitor project, dose response (AID 602260); assay type: functional; conditions: read-out: IC50_Mean
T4 sequence (P11940 whole entry, the tested form may be a part): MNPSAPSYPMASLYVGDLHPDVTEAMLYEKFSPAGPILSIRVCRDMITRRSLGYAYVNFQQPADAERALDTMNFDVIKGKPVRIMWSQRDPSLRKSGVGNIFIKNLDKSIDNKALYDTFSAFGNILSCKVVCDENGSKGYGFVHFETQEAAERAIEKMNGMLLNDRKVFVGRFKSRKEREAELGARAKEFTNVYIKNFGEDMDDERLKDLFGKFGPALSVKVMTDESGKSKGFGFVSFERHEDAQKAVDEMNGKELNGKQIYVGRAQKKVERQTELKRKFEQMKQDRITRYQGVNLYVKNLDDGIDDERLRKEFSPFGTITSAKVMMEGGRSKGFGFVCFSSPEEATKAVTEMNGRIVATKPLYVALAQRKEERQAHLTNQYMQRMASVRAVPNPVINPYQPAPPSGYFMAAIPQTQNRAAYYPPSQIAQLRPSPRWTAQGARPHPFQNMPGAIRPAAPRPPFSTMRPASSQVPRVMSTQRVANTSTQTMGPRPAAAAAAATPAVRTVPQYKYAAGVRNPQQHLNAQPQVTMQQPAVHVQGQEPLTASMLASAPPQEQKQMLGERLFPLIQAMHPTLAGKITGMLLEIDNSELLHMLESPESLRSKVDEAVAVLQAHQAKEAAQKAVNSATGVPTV

[17] = biological target: T4, Polyadenylate-binding protein 1; experiment: MLLE domain peptide-binding blockers, IC50 – biochemical, fluorescence polarization, FITC-PAM2 peptide, dose response (AID 602259); assay type: functional; conditions: read-out: IC50_Mean
[18] = reduction of Shn3 3'UTR-driven luciferase in osteoblasts – cell-based, Clone20 osteoblasts, firefly luciferase, cherry-picked, dose response (AID 624132); assay type: functional;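 note: firefly luciferase luminescence from reporter carrying the Shn3 3'UTR in osteoblasts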
[19] = loss of viability in HepG2 cells – cell-based, CellTiter-Glo, cherry-picked, cytotoxicity control for Shn3 inhibitor project, dose response (AID 624134); assay type: functional
[20] = non-specific 3'UTR reporter inhibition in Clone20-Shn3RL – cell-based, Renilla luciferase, cherry-picked, counter-screen for Shn3 inhibitor project, dose response (AID 624133); assay type: functional

For CCN(C[C@H]1N[C@@](C)(C(=O)OC)[C@H]2C(=O)N(Cc3ccccc3)C(=O)[C@@H]12)S(=O)(=O)c1ccc(C(C)(C)C)cc1, the AC50 [1] was 6.14 µM (active), the AC50 [2] was 5.72 µM (active) and the AC50 [3] was 6.31 µM (active). The AC50 [4] was 5.16 µM (active).

In the case of Cc1cccc(NC(=S)N/N=C2/CCCCc3ccccc32)c1, the EC50 [5] is reported as > 40 µM (inactive), the IC50 [6] is reported as > 40 µM (not active) and the AC50 [7] is reported as 34 µM (active). For the same compound, the EC50 [8] was > 380 µM (inactive).

In the case of CC1CCN(c2ccc(-c3ccc(NC(=O)C(F)(F)F)cc3)nn2)CC1, the AC50 [9] is reported as 2.7 µM (active).

In the case of Cc1csc(N=Nc2ccc(N(C)C)cc2)[n+]1[O-], the AC50 [9] is reported as 2.84 µM (active).

In the case of O=C(Nc1cc(Cl)cc(Cl)c1)C1CCC(=O)N1Cc1ccccc1Cl (stereo not drawn), the AC50 [1] is reported as 8.36 µM (active), the AC50 [2] is reported as 7.12 µM (active) and the AC50 [3] is reported as 59.2 µM (active). For the same compound, the AC50 [4] was 19.3 µM (active).

With NNC(=O)c1cccc(COc2ccc3c(c2)CCC3)c1 the AC50 [9] was 2.12 µM (active).

For O=C(c1ccc2c(c1)OCO2)N(CC1CCCO1)C1(C(=O)NC2CCCCC2)CCCCC1 (stereo not drawn), the AC50 [1] was 13 µM (active), the AC50 [2] was 5.73 µM (active) and the AC50 [3] was 9.67 µM (active). For the same compound, the AC50 [4] was 4.79 µM (active).

For COc1cc(/C=C2\SC(=S)N(CC(=O)Nc3ccc(O)cc3)C2=O)cc(OC)c1OC, the IC50 [10] was 3.74 µM (active).

In the case of CCn1c(COc2ccc(Cl)cc2)nnc1SCc1nc2ccccc2[nH]1, the AC50 [1] is reported as 5.17 µM (active), the AC50 [2] is reported as 6.83 µM (active) and the AC50 [3] is reported as 23.5 µM (active). For the same compound, the AC50 [4] was 12 µM (active).

In the case of Cc1ccc(/C=C/C(=O)NCc2ccccn2)o1, the IC50 [10] is reported as 6.32 µM (active).

For NNc1nc(-c2ccccc2)cc(-c2ccccc2)n1, the EC50 [11] was > 120 µM (not active), the EC50 [5] was > 40 µM (inactive) and the IC50 [6] was 13 µM (active). The EC50 [12] was > 120 µM (not active) and the EC50 [13] was > 120 µM (not active).

For COc1cccc(/C=C2\SC(=S)N(CCC(=O)NCCc3ccc(O)cc3)C2=O)c1, the AC50 [14] was 4.57 µM (active) and the CC50 [15] was 16.1 µM (active).

For CCc1nc2ccc(C(=O)N3CCN(C(=O)c4ccco4)CC3)cn2c1N(C)Cc1ccc(OC)cc1, the AC50 [1] was 13.5 µM (active), the AC50 [2] was 2.72 µM (active) and the AC50 [3] was 10.4 µM (active). For the same compound, the AC50 [4] was 7.5 µM (active).

For COc1ccc(NS(=O)(=O)c2ccc(N3CCCC3)c(NC(S)=Nc3ccc(SC(F)F)cc3)c2)cc1, the IC50 [16] was > 66 µM (inactive), the IC50 [17] was > 66 µM (inactive) and the AC50 [14] was 16.4 µM (active).

In the case of OC1(c2cccc(C(F)(F)F)c2)CCN(c2[nH]cnc3c4cc(F)ccc4nc2-3)CC1, the AC50 [9] is reported as 7.02 µM (active), the AC50 [18] is reported as 1.87 µM (active) and the AC50 [19] is reported as 46 µM (active). For the same compound, the AC50 [20] was 6.11 µM (active).
